Measurements as given in PMC10338470, “Phase 1 study of GSK3368715, a type I PRMT inhibitor, in patients with advanced solid tumors” (British Journal of Cancer, 2023).

Columns and labels:
Type in all cases: in vivo, human
[1] = tested on: ADMA-R225-hnRNP-A1 in PBMCs; assay: ADMA-R225-hnRNP-A1 in PBMCs (LC-MS), target engagement
Procedure: (§1) Tumor cell and plasma target engagement PD biomarkers were assessed in the dose-escalation cohort on days 1, 8, 15, and 22. In the PK/PD cohort, urine for PK and metabolite profiling was collected postdose on day 1 and through 48 h postdose on day 2, and for 24 h postdose on day 15. Participants underwent an on-treatment tumor biopsy on day 15. Asymmetric arginine 225 (R225) methylation of heterogeneous nuclear ribonucleoprotein A1 (hnRNP-A1) was identified as a target engagement PD of type I PRMT inhibition; treatment with GSK3368715 results in the reduction of asymmetric dimethylarginine 225 (ADMA-R225) on hnRNP-A1 protein in cancer cell lines and peripheral blood mononuclear cells (PBMCs). Noto et al. describe in detail the identification of hnRNP-A1 as a pharmacodynamic biomarker of type I PRMT inhibition, and the development of novel methodologies to accurately and precisely quantitate changes in the levels of ADMA on hnRNP-A1 in both blood and tumor compartments. Levels of ADMA-R225-hnRNP-A1 were measured in fresh frozen and formalin-fixed paired biopsies by liquid chromatography-mass spectrometry (LC-MS) and immunohistochemistry (IHC).
To measure the ADMA-R225-hnRNP-A1 in the PBMCs, blood was collected using the standard technique for BD Vacutainer® Evacuated Blood Collection Tubes. The PBMC aspirate prepared was used for the ADMA analyses as previously described by the LC-MS method.

[2] = tested on: circulating free ADMA, cfMMA, cfSDMA; assay: Plasma circulating free ADMA, MMA and SDMA; settings: day 15
Procedure: as §1

[3] = Plasma pharmacokinetics (LC-MS-MS, noncompartmental analysis); settings: for AUC0-24, geometric mean (%CVb) / Cmax, geometric mean (%CVb) / t1/2, geometric mean (%CVb) / tmax, median (range): plasma
Procedure: In both the dose-escalation and PK/PD cohorts, plasma samples for PK analysis were obtained following dosing on day 1 and pre- and postdose on days 2, 3, 4, 8, 15, 16, 22, and predose every 4 weeks thereafter. Plasma concentrations for GSK3368715 and its metabolites (GSK3963583, GSK3983164, and GSK3510519) were quantified using a validated ultra high-performance liquid chromatography-mass spectrometry-mass spectrometry (LC-MS-MS) method. PK parameters were analyzed using noncompartmental methods.
Adverse events and DLTs were summarized descriptively by dose cohort. Pharmacokinetic parameters of GSK3368715 and its metabolites (GSK3963583 and GSK3983164) were estimated in the PK/PD population (all participants for whom a PK sample was obtained) using a noncompartmental analysis model (WinNonlin version 8.1) and summarized descriptively. Best overall response as per RECIST 1.1 was summarized descriptively by dose cohort. Levels of tumor cell and plasma pharmacodynamic biomarkers were also summarized descriptively.

[4] = tested on: ADMA-R225-hnRNP-A1 in tumor biopsies; assay: Tumor biopsy ADMA-R225-hnRNP-A1 by IHC (formalin-fixed); settings: 100-mg dose level, day 15; in 4/8 patients
Procedure: as §1

[5] = tested on: ADMA-R225-hnRNP-A1 in tumor biopsies; assay: Tumor biopsy ADMA-R225-hnRNP-A1 by LC-MS (fresh frozen); settings: 100-mg dose level, day 15
Procedure: as §1

[6] = GSK3368715 50-mg dose escalation cohort, Day 1
[7] = GSK3368715 50-mg dose escalation cohort, Day 15
[8] = GSK3368715 100-mg PK/PD cohort, Day 1
[9] = GSK3368715 100-mg PK/PD cohort, Day 15
[10] = GSK3368715 100-mg dose escalation cohort, Day 1
[11] = GSK3368715 100-mg dose escalation cohort, Day 15
[12] = GSK3368715 100-mg total, Day 15

For `CCOCC1(COCC)CCC(c2[nH]ncc2CN(C)CCNC)CC1` [GSK3368715], the “Reduction of ADMA-R225-hnRNP-A1 in PBMCs, mean (SE 5.81%)” value ([1]; 100 mg, day 15) was 43.1%, the “Reduction of ADMA-R225-hnRNP-A1 in PBMCs, mean (SE 6.92%)” value ([1]; 200-mg dose group, day 15) was 54.7% and the “Target engagement in the blood” value ([1]; in vivo) was “observed”. For the same compound, the “Increase in cfMMA, mean (SE 11.9%)” value ([2]; 100 mg) was 24.8%, the “Increase in cfSDMA, mean (SE 8.65%)” value ([2]; 100 mg) was 30.2% and the “Reduction in circulating free ADMA, mean (SE 1.98%)” value ([2]; 100 mg) was 22.5%. The “Increase in cfMMA, mean (SE 18.7%)” value ([2]; 200 mg) was 43.8%, the “Increase in cfSDMA, mean (SE 23.8%)” value ([2]; 200 mg) was 39.8% and the “Reduction in circulating free ADMA, mean (SE 7.7%)” value ([2]; 200-mg dose group) was 29.1%. The “Increase of Cmax and AUC0−24 with dose” value ([3]; dose range studied (50-200 mg)) was “dose proportional”, the “PK variability (%CVb)” value ([3]; in vivo) was “high PK variability” and the “AUC0-24, geometric mean (%CVb)” value ([3]; GSK3368715 200 mg, Day 1) was 1274.7 (43.8) h•ng/mL. For the same compound, the “Cmax, geometric mean (%CVb)” value ([3]; GSK3368715 200 mg, Day 1) was 336.8 (72.6) ng/mL, the “t1/2, geometric mean (%CVb)” value ([3]; GSK3368715 200 mg, Day 1) was 15.9 h and the “tmax, median (range)” value ([3]; GSK3368715 200 mg, Day 1) was 1.1 (0.4, 3.1) h. For the same compound, the “AUC0-24, geometric mean (%CVb)” value ([3]; GSK3368715 200 mg, Day 15) was 4861.4 (45.3) h•ng/mL, the “Cmax, geometric mean (%CVb)” value ([3]; GSK3368715 200 mg, Day 15) was 729.2 (42.8) ng/mL and the “t1/2, geometric mean (%CVb)” value ([3]; GSK3368715 200 mg, Day 15) was 2.9 (43.5) h. For the same compound, the “tmax, median (range)” value ([3]; GSK3368715 200 mg, Day 15) was 1.0 (0.5, 3.1) h, the “AUC0-24, geometric mean (%CVb)” value [3, 6] was 259.5 (--) h•ng/mL and the “Cmax, geometric mean (%CVb)” value [3, 6] was 107.2 (48.8) ng/mL. For the same compound, the “tmax, median (range)” value [3, 6] was 0.28 (0.25, 1.1) h, the “AUC0-24, geometric mean (%CVb)” value [3, 7] was 581.9 (101.4) h•ng/mL and the “Cmax, geometric mean (%CVb)” value [3, 7] was 111.9 (48.5) ng/mL. The “tmax, median (range)” value [3, 7] was 3.0 (0.5, 3.1) h, the “AUC0-24, geometric mean (%CVb)” value [3, 8] was 937.6 (30.9) h•ng/mL and the “Cmax, geometric mean (%CVb)” value [3, 8] was 237.6 (62.3) ng/mL. The “t1/2, geometric mean (%CVb)” value [3, 8] was 8.8 (--) h, the “tmax, median (range)” value [3, 8] was 0.5 (0.3, 3.1) h and the “AUC0-24, geometric mean (%CVb)” value [3, 9] was 1628.8 (60.4) h•ng/mL. For the same compound, the “Cmax, geometric mean (%CVb)” value [3, 9] was 382.7 (67.4) ng/mL, the “t1/2, geometric mean (%CVb)” value [3, 9] was 1.4 (--) h and the “tmax, median (range)” value [3, 9] was 1.0 (0.5, 2.1) h. For the same compound, the “AUC0-24, geometric mean (%CVb)” value [3, 10] was 1020.7 (26.7) h•ng/mL, the “Cmax, geometric mean (%CVb)” value [3, 10] was 145.0 (207.3) ng/mL and the “t1/2, geometric mean (%CVb)” value [3, 10] was 7.2 (--) h. For the same compound, the “tmax, median (range)” value [3, 10] was 0.5 (0.3, 3.1) h, the “AUC0-24, geometric mean (%CVb)” value [3, 11] was 1479.6 (79.7) h•ng/mL and the “Cmax, geometric mean (%CVb)” value [3, 11] was 362.9 (115.9) ng/mL. The “t1/2, geometric mean (%CVb)” value [3, 11] was 1.8 (--) h, the “tmax, median (range)” value [3, 11] was 0.9 (0.5, 1.1) h and the “AUC0-24, geometric mean (%CVb)” value ([3]; GSK3368715 100-mg total, Day 1) was 972.3 (27.1) h•ng/mL. The “Cmax, geometric mean (%CVb)” value ([3]; GSK3368715 100-mg total, Day 1) was 197.4 (112.1) ng/mL, the “t1/2, geometric mean (%CVb)” value ([3]; GSK3368715 100-mg total, Day 1) was 7.9 h and the “tmax, median (range)” value ([3]; GSK3368715 100-mg total, Day 1) was 0.5 (0.3, 3.1) h. The “AUC0-24, geometric mean (%CVb)” value [3, 12] was 1573.8 (64.2) h•ng/mL, the “Cmax, geometric mean (%CVb)” value [3, 12] was 375.5 (79.9) ng/mL and the “t1/2, geometric mean (%CVb)” value [3, 12] was 1.6 (15.6) h. The “tmax, median (range)” value [3, 12] was 0.9 (0.5, 2.1) h, the “Mean reduction of ADMA-hnRNP-A1 in tumor biopsies by IHC (SE 9.36)” value [4] was 2.08% and the “Target engagement in tumor biopsies” value [5] was “modest and variable”. For the same compound, the “Mean reduction of ADMA-hnRNP-A1 in tumor biopsies by LC-MS (SE 9.6)” value ([5]; in 4/6 patients) was 18.5%.
